We go through 15 molecules from PubChem BioAssay (NCI).

A word on the TGI: it is the concentration at which net growth stops. A high value points to less potent growth arrest.

Common to all, as to experiment: DTP human tumour cell line panel, 48 h
For assay [1], the system named is MALME-3M melanoma.
In assay [2] the test system is RPMI-8226 leukemia.
Assay [3] has as its system HCT-15 colon.
For assay [4], the system named is OVCAR-4 ovarian.
In assay [5] the test system is OVCAR-3 ovarian.
Assay [6] deals with MOLT-4 leukemia.
Assay [7] concerns MDA-N.
Assay [8] has as its system SN12C renal.
Assay [9] has as its system K-562 leukemia.
The subject of assay [10] is TK-10 renal.
Assay [11] concerns COLO 205 colon.
For assay [12], the system named is SNB-19 CNS.
The subject of assay [13] is SF-295 CNS.
Assay [14] deals with UO-31 renal.
Assay [15] deals with HS 578T breast.
For assay [16], the system named is MCF7 breast.
Assay [17] relates to SNB-75 CNS.
In assay [18] the test system is DU-145 prostate.
Assay [19] concerns SR leukemia.
Assay [20] relates to HOP-92 NSCLC.

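All cell lines were grown in 96-well plates and treated with compound for 48 hours. TGI: total growth inhibition.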 Bounds are passed on as bounds.

Take `O=C(NNC(=O)c1ccccc1O)c1cccc(Br)c1`: the concentration for total growth inhibition (TGI) in [1] is greater than 100 µM; in assay [2], greater than 100 µM; in assay [3], greater than 100 µM; in assay [4] it was greater than 100 µM; in assay [5], greater than 100 µM; in assay [6], greater than 81 µM. Also, the TGI in [7], in assay [8], in assay [9], in [10], in assay [11] and in assay [12] was greater than 100 µM in each case. In addition, the TGI in assay [13] is greater than 100 µM; in [14] it was greater than 100 µM; in assay [15] it was greater than 100 µM; in [16], greater than 60.3 µM; in [17] it was greater than 100 µM; in assay [18], greater than 100 µM. The same molecule registered a TGI in assay [19] greater than 100 µM.

On to `CC(=O)NC1=N/C(=C\c2ccc(Cl)cc2)C(=O)N1/C=C1\C(=O)Oc2ccccc2C1=O`, for which the concentration for total growth inhibition (TGI) in assay [1], in assay [2], in assay [3], in [4], in assay [5] and in assay [6] was greater than 100 µM each time. The concentration for total growth inhibition (TGI) in assay [7], in assay [8], in assay [9], in assay [11], in assay [12] and in assay [13] was greater than 100 µM in each case. In addition, the TGI is 6.22 µM in assay [15]; greater than 100 µM in [16]; greater than 100 µM in assay [17]; greater than 100 µM in assay [18]; greater than 100 µM in [19].

On to `O=C(CC(C(=O)c1ccsc1)c1ccccc1)c1ccccc1` (stereo not drawn), for which the total growth inhibition concentration (TGI) in assay [20] is greater than 100 µM; in assay [2], greater than 100 µM; in [3], greater than 100 µM; in assay [4], 75.9 µM; in assay [5], greater than 100 µM; in assay [6] it was greater than 100 µM. Moreover, the concentration for total growth inhibition (TGI) in [7], in assay [8], in assay [9], in [10], in assay [11] and in assay [13] was greater than 100 µM in each case. Also, the total growth inhibition concentration (TGI) in assay [14], in [15], in assay [16], in assay [17], in assay [18] and in assay [19] was greater than 100 µM each time.

`Cc1cc(C(F)(F)F)cc(-n2nc(NS(=O)(=O)c3cc(C)c(Cl)cc3S)nc2N)n1`: the TGI in assay [20], in assay [1], in [2], in [3], in assay [4] and in [5] was greater than 100 µM in each case. In addition, the TGI in [6] is 69.5 µM; in assay [7], greater than 100 µM; in assay [8] it was greater than 100 µM; in [9], greater than 100 µM; in assay [10], greater than 100 µM; in [11], greater than 100 µM. The TGI in assay [12], in [13], in assay [15], in assay [16], in assay [17] and in assay [19] was greater than 100 µM throughout.

For the molecule `COc1cccc(C2c3cc4c(cc3OC(C)(N3CCCC3)C2C)OCO4)c1` (stereo not drawn), the concentration for total growth inhibition (TGI) in [20] is 42.2 µM; in [1] it was 64.7 µM; in assay [3] it was 44.2 µM; in [4], 75 µM; in assay [5], 22 µM; in assay [6], greater than 100 µM. Besides, the TGI is 4.02 µM in assay [7]; 48.6 µM in [8]; greater than 100 µM in [9]; 37.2 µM in [10]; 23.6 µM in [11]; greater than 100 µM in [12]. Moreover, the TGI in assay [13] is 73.9 µM; in assay [14] it was 39.9 µM; in assay [15], 19.9 µM; in assay [16], 45.7 µM; in [17] it was 26.5 µM; in [18] it was 49.6 µM. The same molecule showed a TGI in assay [19] greater than 100 µM.

For the molecule `CCCC(=O)N1CCN(c2ccc3c(c2)OC(C)O3)CC1` (stereo not drawn), the TGI in [20], in [1], in assay [3], in [4], in assay [5] and in [6] was greater than 100 µM in each case. The TGI in [7], in assay [8], in [9], in assay [10], in [11] and in assay [12] was greater than 100 µM each time. Also, the TGI in assay [13], in [14], in assay [15], in [16], in assay [17] and in assay [18] was greater than 100 µM throughout. Also, in assay [19], the total growth inhibition concentration (TGI) was greater than 100 µM.

For `CC(=O)N(C)CCc1c[nH]c2ccccc12`, the total growth inhibition concentration (TGI) in assay [1], in assay [2], in assay [3], in assay [4], in [5] and in assay [6] was greater than 100 µM throughout. The TGI in [7], in assay [8], in assay [9], in assay [10], in assay [11] and in [12] was greater than 100 µM in each case. Moreover, the TGI in assay [13], in [14], in [15], in assay [16], in assay [17] and in [18] was greater than 100 µM each time. Besides, the total growth inhibition concentration (TGI) in assay [19] is greater than 100 µM.

With `COC1(OC)CCCc2c1no[n+]2[O-]`, the total growth inhibition concentration (TGI) in assay [1], in assay [2], in [3], in assay [4], in [5] and in assay [6] was greater than 100 µM each time. Also, the TGI in [7], in assay [8], in assay [9], in [10], in [11] and in [12] was greater than 100 µM each time. Besides, the concentration for total growth inhibition (TGI) in assay [13], in [14], in assay [15], in [16], in assay [17] and in [18] was greater than 100 µM in each case. The same molecule displayed a TGI in assay [19] greater than 100 µM.

On to `Cn1c2ccccc2c(=O)c2cccc(C(=O)NC(CS)C(=O)O)c21` (stereo not drawn), for which the total growth inhibition concentration (TGI) in assay [1], in assay [2], in assay [3], in assay [4], in assay [5] and in assay [6] was greater than 100 µM throughout. The TGI in assay [7], in assay [8], in assay [9], in [10], in assay [11] and in assay [12] was greater than 100 µM each time. Also, the TGI in assay [13], in assay [14], in assay [15], in assay [16], in assay [17] and in assay [18] was greater than 100 µM each time. The molecule also returned a concentration for total growth inhibition (TGI) in assay [19] greater than 100 µM.

For `O=C(Cn1c(-c2ccccc2)cc2ccccc21)N1CCCC1`, the TGI in assay [20], in assay [1], in assay [3], in assay [4], in assay [5] and in [6] was greater than 100 µM each time. Also, the TGI in [7], in [8], in [11], in [12], in assay [13] and in assay [14] was greater than 100 µM throughout. In addition, the TGI in assay [15], in assay [16], in assay [17], in [18] and in assay [19] was greater than 100 µM throughout.

With `COC1=C(Br)[C@H](O)[C@@]2(C=C1Br)CC(C(=O)NCCCOc1c(Br)cc(C(O)CNC(C)=O)cc1Br)=NO2` (stereo partly drawn), the TGI in [1], in assay [2], in assay [3], in assay [4], in [5] and in assay [6] was greater than 10 µM each time. Moreover, the concentration for total growth inhibition (TGI) in assay [7] is 4.4 µM; in assay [8] it was greater than 10 µM; in assay [9], greater than 10 µM; in [10], greater than 10 µM; in assay [11], greater than 10 µM; in assay [12] it was greater than 10 µM. Also, the TGI in assay [13], in assay [14], in assay [15], in [16], in assay [17] and in assay [18] was greater than 10 µM each time. In [19], this molecule came in with a TGI of 1.77 µM.

`CCOC(=O)Cc1ccc(Nc2nc3ccccc3nc2C(=O)OCC)cc1`: the TGI in assay [20], in assay [1], in [3], in assay [4], in [5] and in assay [6] was greater than 100 µM in each case. The TGI in [7] was greater than 100 µM; in assay [8], greater than 100 µM; in assay [10] it was greater than 100 µM; in assay [11] it was greater than 100 µM; in assay [12], 41 µM; in assay [13], greater than 100 µM. For the same molecule, the TGI in [14] was 41.3 µM; in [15] it was 88.9 µM; in assay [16] it was greater than 100 µM; in [17], 38.3 µM; in assay [18] it was greater than 100 µM; in assay [19] it was greater than 100 µM.

Take `c1ccc2c(c1)SCCC2NC1=NCCO1` (stereo not drawn): the total growth inhibition concentration (TGI) in assay [1], in assay [2], in assay [3], in assay [4], in assay [5] and in assay [6] was greater than 100 µM each time. Moreover, the TGI in assay [7], in assay [8], in assay [9], in [10], in assay [11] and in assay [12] was greater than 100 µM each time. Besides, the TGI in assay [13], in assay [14], in assay [15], in assay [16], in [17] and in [18] was greater than 100 µM each time. In addition, the TGI in assay [19] was greater than 100 µM.

As for `COC(=O)NC(C(F)(F)F)(C(F)(F)F)P1(=O)OCCCO1`, the total growth inhibition concentration (TGI) is greater than 100 µM in [20]; 48.5 µM in assay [2]; 59 µM in assay [3]; greater than 100 µM in [4]; greater than 100 µM in assay [5]; greater than 100 µM in [6]. For the same molecule, the total growth inhibition concentration (TGI) in assay [7] is 70.3 µM; in assay [8], greater than 100 µM; in assay [9], greater than 100 µM; in [10], 97.6 µM; in [11] it was 69.9 µM; in assay [12] it was 78.7 µM. Besides, the TGI in [13] is 55.3 µM; in assay [14], 65.6 µM; in assay [15], greater than 100 µM; in [16], greater than 100 µM; in assay [17] it was greater than 100 µM; in assay [18], greater than 100 µM. Besides, in assay [19], the TGI was 69.5 µM.

Take `CCOC(=O)[C@H](C)OC(=O)[C@@](C)(NC(=O)c1ccccc1C(=O)OC)[C@@H]1NC=C(C(=O)OC)CS1`: the TGI in assay [1], in [2], in assay [3], in [4], in assay [5] and in [6] was greater than 100 µM in each case. Moreover, the concentration for total growth inhibition (TGI) in assay [7] is 64.6 µM; in [8] it was greater than 100 µM; in [9], greater than 100 µM; in [10] it was greater than 100 µM; in assay [11], greater than 100 µM; in assay [12], greater than 100 µM. Besides, the total growth inhibition concentration (TGI) in assay [13], in assay [14], in [15], in assay [16], in assay [17] and in [18] was greater than 100 µM each time. For the same molecule, the TGI in [19] stood at 46.5 µM.
